Reference: patent US6458840B2, “Use of valproic acid analog for the treatment and prevention of migraine and affective illness” (American Biogenetic Sciences, Inc., priority 1998, dated 2002)
Values after ≈ are worked out from the molar mass of the structure shown.

Assays:
[1] = test system: amygdala-kindled seizures; assay: Amygdala-kindling in fully kindled rats (anti-seizure effects); format: in vivo, rat; settings: for afterdisch.dur.1 (ADD1) / afterdisch.dur.2 (ADD2) / afterdisch.thresh. (ADT) / seizure duration1 (SD1) / seizure duration2 (SD2) / seizure severity (SS): 15 min pretreatment, mean (X); for seizure severity (SS): Racine score; for increase of afterdischarge threshold: versus pre-drug control
Procedure: For implantation of stimulation and recording electrodes, rats were anesthetized with chloral hydrate (360 mg/kg i.p.) and received stereotaxic implantation (according to the surgery methods described in the atlas of Paxinos and Watson [1986]) of one bipolar electrode in the right basolateral amygdala. Coordinates for electrode implantation were AP-2.2 mm, L-4.8 mm, V-8.5 mm. All coordinates were measured from bregma. Skull screws served as the indifferent reference electrode. The electrode assembly was attached to the skull by dental acrylic cement. After a postoperative period of 2 weeks, constant current stimulations (500 μA, 1 ms, monophasic square-wave pulses, 50/s for 1 s) were delivered to the amygdala at intervals of 1/day until ten stage 5 seizures were elicited. The electrical susceptibility of the stimulated region (threshold for induction of afterdischarges) was recorded on the first day of the experiment (initial afterdischarge threshold) as well as after kindling acquisition (with an interval of at least 4 days after the tenth stage 5 seizure) using an ascending staircase procedure. The initial current intensity was 1 OμA, and the current intensity was increased in steps of about 20% of the previous current at intervals of 1 min until an afterdischarge of at least 3 s duration was elicited. […] In addition to afterdischarge threshold, the following parameters of kindled seizures were measured in fully-kindled rats after stimulation with the afterdischarge threshold current: seizure severity was classified according to Racine (1972): 1 -immobility, eye closure, twitching of vibrissae, sniffing, facial clonus; 2-head nodding associated with more severe facial clonus; 3-clonus of one forelimb; 4-rearing, often accompanied by bilateral forelimb clonus; 5-rearing with loss of balance and falling accompanied by generalized clonic seizures. Seizure duration 1 (SD 1) was the duration of limbic (stage 1-2) and/or motor seizures (stage 3-5). Seizure duration 2 (SD 2) included the time of limbic and/or motor seizures plus the adjacent time of immobility. Afterdischarge duration 1 (ADD 1) was the time of spikes in the EEG recorded from the site of stimulation with a frequency of at least 1 /s. Afterdischarge duration 2 (ADD 2) was the total time of spikes occurring in the EEG including those, which followed the ADD 1 with lower frequency and amplitude.
The anti-seizure effects of 2-propyl-4-hexynoic acid and valproate in fully kindled rats were determined in a group of 8-9 rats (no. 784, 785, 787, 788, 789, 790 [had to be taken out of the trial, because of loss of electrodes], 791, 792, 793) with reproducible stage 5 seizures.
Drugs were injected 15 min prior to stimulation intraperitoneally. Control experiments were always performed 2-3 days before each drug experiment. For control determinations, rats received i.p. injections of vehicle (saline) with the pretreatment time of the respective drug experiment. For all drug experiments, at least 4 days were interposed between 2 drug injections in order to avoid alterations in drug potency due to cumulation or tolerance.
The significance of differences between pre-drug control recordings and recordings after drug injection was calculated by the Wilcoxon signed rank test for paired replicates (SigmaStat for Windows, version 1.0).

[2] = Rotarod test (neurological deficit) in kindled rats; format: in vivo, rat; settings: for rotarod-test, day of exper.: 13′ after application
Procedure: (§1) Tests included open field observations, rotarod test and body temperature. Tests were always performed in the same manner in control and drug experiments at two different times, just before application of drug or vehicle and 13 minutes after application.
The rotarod test was carried out with a rod of 6 cm diameter and rotation speed of 8 r.p.m. Neurological deficit was indicated by inability of the animals to maintain their equilibrium for at least 1 min on the rotating rod. Rats had to be trained prior to drug experiments to maintain their balance on the rod. After drug or vehicle treatment, rats which were not able to maintain their equilibrium on the rod for 1 minute were put again on the rod twice.

[3] = Open field observation, behavioral rating of adverse effects; format: in vivo, rat; settings: for antaxia (1-6) / hypolocomotion (1-3) / muscle relaxation (1-3): 13′ after application, mean (X)
Procedure: as §1
In addition to these quantitative estimations of neurological deficit, behavioral alterations observed after administration of 2-propyl-4-hexynoic acid and valproate noted in the cage and by placing the animals in an open field of 90-100 cm diameter. Muscle tone was estimated by palpation of the abdomen. The extent of deficits in behavior after administration of the compounds was determined by a rating system (Loscher et al. 1987). In short, animals were taken out of the cage, placed in an open field, observed for about 1 minute and rated separately for ataxia, abducted hindlimbs, reduced righting, flat body posture, circling, Straub tail, piloerection, hypolocomotion and hyperlocomotion (abdominal muscle tone was evaluated by palpation at the end of the period of observation). All other parameters except ataxia were scored from 0 to 3: 0-absent; 1-equivocal; 2-present; 3- intense. For ataxia (06): 1 -slight ataxia in hind-legs (tottering of the hind quarters); 2-more pronounced ataxia with dragging of hind legs; 3-further increase of ataxia and more pronounced dragging of hind legs; 4-marked ataxia, animals lose balance during forward locomotion; 5- very marked ataxia with frequent loss of balance during forward locomotion; 6-permanent loss of righting reflexes, but animal still attempts to move forward. Rectal body temperature was measured by an electronic thermometer. Body weight of the animals was recorded once daily before drug injection. Significance of differences in behavior between pre-drug and post-drug data determined in the same group of animals was calculated by the Wilcoxon signed rank test for paired replicates and for body temperature by Student's paired t-test (SigmaStat for Windows, version 1.0). Differences in body temperature were always compared only within the experimental day with the pre-drug time as control to one post-drug time.

[4] = Drug solubility test; format: physicochemical; settings: read-out: concentration in drug solubility test
[5] = 100 mg/kg i.p., listed as valproate
[6] = 200 mg/kg i.p., listed as valproate

## CCCC(CCC)C(=O)O [Valproate, valproic acid]
[1]; 50 mg/kg i.p.
  afterdisch.dur.1 (ADD1): 76.67 s
  afterdisch.dur.2 (ADD2): 76.67 s
  afterdisch.thresh. (ADT): 60.44 μA
  seizure duration1 (SD1): 72.22 s
  seizure duration2 (SD2): 231.67 s
  seizure severity (SS): 4.33 score
  increase of afterdischarge threshold: 109%
[1]; 75 mg/kg i.p.
  afterdisch.dur.1 (ADD1): 67.25 s
  afterdisch.dur.2 (ADD2): 67.25 s
  afterdisch.thresh. (ADT): 73.13 μA
  seizure duration1 (SD1): 54.00 s
  seizure duration2 (SD2): 250.75 s
  seizure severity (SS): 4.13 score
  increase of afterdischarge threshold: 77%
[1]; 100 mg/kg i.p.
  afterdisch.dur.1 (ADD1): 20.00 s
  afterdisch.dur.2 (ADD2): 20.00 s
  afterdisch.thresh. (ADT): 151.67 μA
  seizure duration1 (SD1): 18.22 s
  seizure duration2 (SD2): 43.44 s
  seizure severity (SS): 3.00 score
  increase of afterdischarge threshold: 319%
[1]; [5]
  seizure severity (SS): 3.0 score
  afterdisch.dur.2 (ADD2): 20 s
  seizure duration1 (SD1): 18 s
[1]; 200 mg/kg i.p.
  afterdisch.dur.1 (ADD1): 8.75 s
  afterdisch.dur.2 (ADD2): 8.75 s
  afterdisch.thresh. (ADT): 496.25 μA
  seizure duration1 (SD1): 8.75 s
  seizure duration2 (SD2): 8.75 s
  seizure severity (SS): 1.63 score
  increase of afterdischarge threshold: 970%
[1]; [6]
  seizure severity (SS): 1.6 score
  afterdisch.dur.2 (ADD2): 9 s
  seizure duration1 (SD1): 9 s
[1]; all doses tested: 50, 75, 100, 200 mg/kg i.p.
  effects against amygdala-kindled seizures, in words: significant effects against amygdala-kindled seizures
[2]; 50 mg/kg i.p.
  rotarod-test, day of exper.: 0%
[2]; 75 mg/kg i.p.
  rotarod-test, day of exper.: 0%
[2]; 100 mg/kg i.p.
  rotarod test, in words: performed without failure
  rotarod-test, day of exper.: 0%
[2]; 200 mg/kg i.p.
  rotarod test, in words: performed without failure
  rotarod-test, day of exper.: 0%
[3]; 100 mg/kg i.p.
  alterations in behavior, in words: No alterations
[3]; 200 mg/kg i.p.
  further adverse effects, in words: wet dog shakes
  antaxia (1-6): 2.75 score
  hypolocomotion (1-3): 1.00 score
  muscle relaxation (1-3): 2.00 score
[3]; [6]
  antaxia (1-6): 2.8 score
  hypolocomotion (1-3): 1.0 score
  muscle relaxation (1-3): 2.0 score
[4]
  solubility: 20 mg/mL (≈ 139 mM)
